Source: ChEMBL document CHEMBL6092162, “Identification of novel and potent triazoles targeting CYP51 for antifungal: Design, synthesis, and biological study” (Eur J Med Chem, 2024)
In brackets after ≈: the same amount, converted by molar mass. Activity calls are given as the source filed them. The rule behind the calls is not given here.

Key:
[1] = test system: Candida albicans; experiment: Antifungal activity against Candida albicans GIM 2.194 assessed as inhibition of fungal growth by CLSI M27-A3 guidelines based method; assay type: functional
[2] = test system: Candida albicans; experiment: Antifungal activity against fluconazole-resistant Candida albicans CaR assessed as inhibition of fungal growth by CLSI M27-A3 guidelines based method; assay type: functional
[3] = test system: Pichia kudriavzevii; experiment: Antifungal activity against Candida krusei GIM 2.1 assessed as inhibition of fungal growth by CLSI M27-A3 guidelines based method; assay type: functional
[4] = test system: Candida albicans; experiment: Antifungal activity against fluconazole and iodiconazole resistant Candida albicans clinical isolate 17# assessed as inhibition of fungal growth by CLSI M27-A3 guidelines based method; assay type: functional
[5] = test system: Candida albicans; experiment: Antifungal activity against fluconazole-resistant Candida albicans clinical isolate 103 assessed as inhibition of fungal growth by CLSI M27-A3 guidelines based method; assay type: functional
[6] = test system: Candida albicans; experiment: Antifungal activity against fluconazole-resistant Candida albicans clinical isolate 901 assessed as inhibition of fungal growth by CLSI M27-A3 guidelines based method; assay type: functional
[7] = test system: Candida albicans; experiment: Antifungal activity against fluconazole-resistant Candida albicans clinical isolate 904 assessed as inhibition of fungal growth by CLSI M27-A3 guidelines based method; assay type: functional
[8] = test system: Candida tropicalis; experiment: Antifungal activity against Candida tropicalis GIM 2.183 assessed as inhibition of fungal growth by CLSI M27-A3 guidelines based method; assay type: functional
[9] = test system: Candida albicans; experiment: Antifungal activity against fluconazole-resistant Candida albicans clinical isolate 311 assessed as inhibition of fungal growth by CLSI M27-A3 guidelines based method; assay type: functional
[10] = test system: Nakaseomyces glabratus; experiment: Antifungal activity against Candida glabrata assessed as inhibition of fungal growth by CLSI M27-A3 guidelines based method; assay type: functional
[11] = test system: Candida parapsilosis; experiment: Antifungal activity against Candida parapsilosis GIM 2.190 assessed as inhibition of fungal growth by CLSI M27-A3 guidelines based method; assay type: functional; settings: Lodderomyces parapsilosis
[12] = test system: Candida albicans; experiment: Antifungal activity against Candida albicans SC5314 assessed as inhibition of fungal growth by CLSI M27-A3 guidelines based method; assay type: functional
[13] = test system: Candida albicans; experiment: Antifungal activity against fluconazole-resistant Candida albicans clinical isolate 100 assessed as inhibition of fungal growth by CLSI M27-A3 guidelines based method; assay type: functional
[14] = test system: Candida albicans; experiment: Antifungal activity against fluconazole-resistant Candida albicans clinical isolate 632 assessed as inhibition of fungal growth by CLSI M27-A3 guidelines based method; assay type: functional
[15] = test system: Cryptococcus neoformans; experiment: Antifungal activity against Cryptococcus neoformans CGMCC 2.3161 assessed as inhibition of fungal growth by CLSI M27-A3 guidelines based method; assay type: functional
[16] = test system: Candida albicans; experiment: Antibiofilm activity against fluconazole-resistant Candida albicans CPCC400616 assessed as inhibition of metabolic activity of biofilm measured after 24 hrs by XTT reduction assay; assay type: functional
[17] = test system: Candida albicans; experiment: Antibiofilm activity against fluconazole-resistant Candida albicans CPCC400616 assessed as inhibition of metabolic activity of biofilm measured after 48 hrs by XTT reduction assay; assay type: functional
[18] = Cytotoxicity against HUVEC cells assessed as inhibition of cell growth incubated for 72 hrs by MTT assay; assay type: toxicity, cell-based; settings: human
[19] = test system: Candida albicans; experiment: Selectivity ratio of MFC for fungicidal activity against fluconazole and iodiconazole resistant Candida albicans clinical isolate 17# to MIC80 for antifungal activity against fluconazole and iodiconazole resistant Candida albicans clinical isolate 17#; assay type: functional
[20] = test system: Candida albicans; experiment: Selectivity ratio of MFC for fungicidal activity against Candida albicans SC5314 to MIC80 for antifungal activity against Candida albicans SC5314; assay type: functional
[21] = Cytotoxicity against human NCI-H460 cells assessed as inhibition of cell growth incubated for 72 hrs by MTT assay; assay type: toxicity, cell-based
[22] = test system: Candida albicans; experiment: Fungicidal activity against Candida albicans SC5314 incubated for 48 hrs by SDA plate based method; assay type: functional
[23] = test system: Candida albicans; experiment: Fungicidal activity against fluconazole and iodiconazole resistant Candida albicans clinical isolate 17# incubated for 48 hrs by SDA plate based method; assay type: functional
[24] = Cytotoxicity against human OVCAR-3 cells assessed as inhibition of cell growth incubated for 72 hrs by MTT assay; assay type: toxicity, cell-based
[25] = test system: Candida albicans; experiment: Antibiofilm activity against fluconazole-resistant Candida albicans CPCC400616 assessed as inhibition of metabolic activity of biofilm measured after 6 hrs by XTT reduction assay; assay type: functional
[26] = test system: Candida albicans; experiment: Antibiofilm activity against Candida albicans CPCC400616 assessed as inhibition of morphological transformation by measuring disappearance of mycelium at 2 microg/ml incubated for 4 hrs by microscopic photograph analysis; assay type: functional, organism-based; settings: dose 2.0 µg/ml
[27] = Cytotoxicity against HEK293T cells assessed as inhibition of cell growth incubated for 72 hrs by MTT assay; assay type: toxicity, cell-based, HEK-293T; settings: human

For `CN(Cc1ccc(N2CCN(Cc3ccccc3Br)CC2)cc1)CC(O)(Cn1cncn1)c1ccc(F)cc1F` (stereo not given), the MIC80 [1] was 0.006 µg/mL (≈ 0.00981 µM), the MIC80 [2] was 0.063 µg/mL (≈ 0.103 µM) and the MIC80 [3] was 0.1 µg/mL (≈ 0.164 µM). The MIC80 [4] was 0.063 µg/mL (≈ 0.103 µM), the MIC80 [5] was 16 µg/mL (≈ 26.2 µM) and the MIC80 [6] was > 64 µg/mL. For the same compound, the MIC80 [7] was 16 µg/mL (≈ 26.2 µM), the MIC80 [8] was 0.013 µg/mL (≈ 0.0213 µM) and the MIC80 [9] was 32 µg/mL (≈ 52.3 µM). It also gave an MIC80 [10] of 0.1 µg/mL (≈ 0.164 µM), an MIC80 [11] of 0.006 µg/mL (≈ 0.00981 µM) and an MIC80 [12] of 0.013 µg/mL (≈ 0.0213 µM). It also gave an MIC80 [13] of 4 µg/mL (≈ 6.54 µM) and an MIC80 [14] of 8 µg/mL (≈ 13.1 µM).
With `CN(Cc1ccc(N2CCN(Cc3ccc(C(F)(F)F)cc3)CC2)cc1)CC(O)(Cn1cncn1)c1ccc(F)cc1F` (stereo not given) the MIC80 [1] was 0.013 µg/mL (≈ 0.0216 µM), the MIC80 [2] was 0.063 µg/mL (≈ 0.105 µM) and the MIC80 [4] was 0.125 µg/mL (≈ 0.208 µM). The MIC80 [5] was 32 µg/mL (≈ 53.3 µM), the MIC80 [6] was > 64 µg/mL and the MIC80 [7] was 32 µg/mL (≈ 53.3 µM). For the same compound, the MIC80 [8] was 0.013 µg/mL (≈ 0.0216 µM), the MIC80 [9] was 32 µg/mL (≈ 53.3 µM) and the MIC80 [10] was 0.1 µg/mL (≈ 0.166 µM). The MIC80 [11] was 0.013 µg/mL (≈ 0.0216 µM), the MIC80 [12] was 0.013 µg/mL (≈ 0.0216 µM) and the MIC80 [13] was 8 µg/mL (≈ 13.3 µM). The MIC80 [14] was 16 µg/mL (≈ 26.6 µM) and the MIC80 [15] was 0.1 µg/mL (≈ 0.166 µM).
Compound `CN(Cc1ccc(N2CCN(Cc3cccc(Br)c3)CC2)cc1)CC(O)(Cn1cncn1)c1ccc(F)cc1F` (stereo not given) has an MIC80 [1] of 0.013 µg/mL (≈ 0.0213 µM), an MIC80 [2] of 0.063 µg/mL (≈ 0.103 µM) and an MIC80 [3] of 0.1 µg/mL (≈ 0.164 µM). The MIC80 [4] was 0.063 µg/mL (≈ 0.103 µM), the MIC80 [5] was 32 µg/mL (≈ 52.3 µM) and the MIC80 [6] was > 64 µg/mL. The MIC80 [7] was 16 µg/mL (≈ 26.2 µM), the MIC80 [8] was 0.013 µg/mL (≈ 0.0213 µM) and the MIC80 [9] was 32 µg/mL (≈ 52.3 µM). It also gave an MIC80 [10] of 0.2 µg/mL (≈ 0.327 µM), an MIC80 [11] of 0.006 µg/mL (≈ 0.00981 µM) and an MIC80 [12] of 0.013 µg/mL (≈ 0.0213 µM). The MIC80 [13] was 8 µg/mL (≈ 13.1 µM), the MIC80 [14] was 8 µg/mL (≈ 13.1 µM) and the MIC80 [15] was 0.1 µg/mL (≈ 0.164 µM).
Compound `CN(Cc1ccc(I)cc1)CC(O)(Cn1cncn1)c1ccc(F)cc1F` (stereo not given) has an MIC80 [1] of 0.025 µg/mL (≈ 0.0516 µM), an MIC50 [16] of 16 µg/mL (≈ 33 µM) and an MIC80 [2] of 2 µg/mL (≈ 4.13 µM). The MIC80 [3] was 0.2 µg/mL (≈ 0.413 µM), the MIC80 [4] was 0.25 µg/mL (≈ 0.516 µM) and the MIC50 [17] was > 32 µg/mL. The MIC80 [5] was 32 µg/mL (≈ 66.1 µM), the MIC80 [6] was > 64 µg/mL and the MIC80 [7] was 8 µg/mL (≈ 16.5 µM). For the same compound, the MIC80 [8] was 0.013 µg/mL (≈ 0.0268 µM), the MIC80 [9] was > 64 µg/mL and the IC50 at 72 h [18] was > 10 µM. For the same compound, the MIC80 [10] was 0.2 µg/mL (≈ 0.413 µM), the Selectivity ratio [19] was 128 and the Selectivity ratio [20] was >256. For the same compound, the IC50 at 72 h [21] was > 10 µM, the MIC80 [11] was 0.025 µg/mL (≈ 0.0516 µM) and the MIC80 [12] was 0.013 µg/mL (≈ 0.0268 µM). For the same compound, the MFC [22] was 32 µg/mL (≈ 66.1 µM), the MIC80 [13] was 2 µg/mL (≈ 4.13 µM) and the MFC [23] was 32 µg/mL (≈ 66.1 µM). The IC50 at 72 h [24] was > 10 µM, the MIC80 [14] was 16 µg/mL (≈ 33 µM) and the MIC50 [25] was 8 µg/mL (≈ 16.5 µM). For the same compound, the Activity [26] was “Active”, the IC50 at 72 h [27] was > 10 µM and the MIC80 [15] was 0.1 µg/mL (≈ 0.206 µM).
